Results as given in US20220380347A1, “INHIBITORS OF CYSTEINE PROTEASES AND METHODS OF USE THEREOF” (Pardes Biosciences, Inc., priority 2020, published 2022).
Like-named read-outs stand apart in the source and are kept apart here.

Experiments:
HCov OC43 = experiment: HCoV OC43 cytopathic effect (CPE) assay, CellTiter Glo; assay type: cell-based, human coronavirus (HCov) OC43
[1] = target: COVID-19 (nCoV-2019, SARS-CoV2) Mpro (Severe acute respiratory syndrome coronavirus 2, UniProt P0DTD1); experiment: COVID-19 (nCoV-2019, SARS-CoV2) Mpro enzymatic assay; assay type: biochemical; settings: 25 nM Mpro, 25 μM substrate; read-out: COVID-19 Mpro IC50
229E Mpro = 229E Mpro (Human coronavirus 229E, UniProt P0C6X1); experiment: 229E Mpro enzymatic assay (standard methods, SARS-CoV2 Mpro assay given as exemplary); assay type: biochemical, human coronavirus (HCov) 229E
Chain of 229E Mpro (P0C6X1 2966-3267): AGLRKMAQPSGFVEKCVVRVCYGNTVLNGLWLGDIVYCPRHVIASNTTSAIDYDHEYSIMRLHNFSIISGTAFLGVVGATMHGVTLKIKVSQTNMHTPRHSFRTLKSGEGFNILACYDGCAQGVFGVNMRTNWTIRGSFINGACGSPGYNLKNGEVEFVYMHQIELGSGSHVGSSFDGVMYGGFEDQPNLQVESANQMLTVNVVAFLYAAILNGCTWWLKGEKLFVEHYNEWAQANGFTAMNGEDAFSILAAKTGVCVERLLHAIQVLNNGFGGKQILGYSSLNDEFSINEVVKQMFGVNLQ
Procedure, shortened: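 Run by standard methods, with the SARS-CoV-2 Mpro protocol given as the model: E. coli-expressed C-His6 protease at 25 nM and substrate at 25 μM (Km 13.5 μM). Buffer pH 7.3 with 5 mM TCEP and 0.1% BSA; % inhibition versus controls fitted to variable-slope log(inhibitor)-response for IC50.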

[2] = read-out: OC43 IC50 (uM) MEDIAN, median
[3] = Betacoronavirus 1, OC43, read-out: OC43 IC50 (uM) MEDIAN, median

Compound | IC50 [1] | EC50 (229E Mpro; 229E Mpro EC50) | IC50 (HCov OC43; [3]) | further results
CN1CC(C(=O)N(c2ccc(S(F)(F)(F)(F)F)cc2)C(C(=O)NC2CCC(F)(F)CC2)c2cncc(F)c2)N(C#N)CC1=O (single isomer, unassigned) [Compound 1161 Isomer 1, 1-cyano-N-[2-[(4,4-difluorocyclohexyl)amino]-1-(5-fluoro-3-pyridyl)-2-oxo-ethyl]-4-methyl-5-oxo-N-[4-(pentafluoro-λ6-sulfanyl)phenyl]piperazine-2-carboxamide] | < 2000 nM | < 2000 nM | – | IC50 (HCov OC43; read-out: OC43 IC50 (uM) MEDIAN, median, listed as 1161 Isomer 1): < 2 µM
CN1CC(C(=O)N(c2ccc(S(F)(F)(F)(F)F)cc2)C(C(=O)NC2CCC(F)(F)CC2)c2cncc(F)c2)N(C#N)CC1=O (single isomer, unassigned) [Compound 1161 Isomer 2, 1-cyano-N-[2-[(4,4-difluorocyclohexyl)amino]-1-(5-fluoro-3-pyridyl)-2-oxo-ethyl]-4-methyl-5-oxo-N-[4-(pentafluoro-λ6-sulfanyl)phenyl]piperazine-2-carboxamide] | 2000 to 10000 nM | 2000 to 10000 nM | – | IC50 (HCov OC43; read-out: OC43 IC50 (uM) MEDIAN, median, listed as 1161 Isomer 2): 2 to 10 µM
CN1CC(C(=O)N(c2ccc(S(F)(F)(F)(F)F)cc2)C(C(=O)NC2CCC(F)(F)CC2)c2cncc(F)c2)N(C#N)CC1=O (single isomer, unassigned) [Compound 1161 Isomer 3, 1-cyano-N-[2-[(4,4-difluorocyclohexyl)amino]-1-(5-fluoro-3-pyridyl)-2-oxo-ethyl]-4-methyl-5-oxo-N-[4-(pentafluoro-λ6-sulfanyl)phenyl]piperazine-2-carboxamide] | 2000 to 10000 nM | 2000 to 10000 nM | – | IC50 (HCov OC43; read-out: OC43 IC50 (uM) MEDIAN, median, listed as 1161 Isomer 3): 10 to 30 µM
CN1CC(C(=O)N(c2ccc(S(F)(F)(F)(F)F)cc2)C(C(=O)NC2CCC(F)(F)CC2)c2cncc(F)c2)N(C#N)CC1=O (single isomer, unassigned) [Compound 1161 Isomer 4, 1-cyano-N-[2-[(4,4-difluorocyclohexyl)amino]-1-(5-fluoro-3-pyridyl)-2-oxo-ethyl]-4-methyl-5-oxo-N-[4-(pentafluoro-λ6-sulfanyl)phenyl]piperazine-2-carboxamide] | 2000 to 10000 nM | 2000 to 10000 nM | – | IC50 (HCov OC43; read-out: OC43 IC50 (uM) MEDIAN, median, listed as 1161 Isomer 4): 2 to 10 µM
CO[C@@H]1C[C@H](C(=O)N(c2ccc(S(F)(F)(F)(F)F)cc2)C(C(=O)N2CCCC3(COC3)C2)c2cccnc2)N(C#N)C1 (single isomer, unassigned) [Compound 1175] | 2000 to 10000 nM | < 2000 nM | – | IC50 (HCov OC43; [2]): < 2 µM
CO[C@@H]1C[C@H](C(=O)N(c2ccc(S(F)(F)(F)(F)F)cc2)C(C(=O)NC2C[C@@H](C)O[C@@H](C)C2)c2cccnc2)N(C#N)C1 (single isomer, unassigned) [Compound 1185] | < 2000 nM | < 2000 nM | < 2 µM | –
CO[C@@H]1C[C@H](C(=O)N(c2ccc(S(F)(F)(F)(F)F)cc2)C(C(=O)NC2CCC(F)(F)CC2)c2cnccc2C)N(C#N)C1 (single isomer, unassigned) [Compound 1199] | < 2000 nM | < 2000 nM | – | IC50 (HCov OC43; [2]): < 2 µM
CC(C(=O)NC1CCC(F)(F)CC1)(c1cccnc1)N(C(=O)[C@H]1[C@@H]2C[C@@H]2CN1C#N)c1ccc(S(F)(F)(F)(F)F)cc1 (single isomer, unassigned) [Compound 1251 Isomer 1] | 2000 to 10000 nM | – | 2 to 10 µM | EC50 (229E Mpro; read-out: 229E Mpro EC50): < 2000 nM
CC(C(=O)NC1CCC(F)(F)CC1)(c1cccnc1)N(C(=O)[C@H]1[C@@H]2C[C@@H]2CN1C#N)c1ccc(S(F)(F)(F)(F)F)cc1 (single isomer, unassigned) [Compound 1251 Isomer 2] | < 2000 nM | < 2000 nM | – | IC50 (HCov OC43; [2]): < 2 µM
CO[C@@H]1C[C@H](C(=O)N(c2ccc(C3CC3)cc2F)C(C(=O)NC2CCC(F)(F)CC2)c2cnccc2C(F)(F)F)N(C#N)C1 (single isomer, unassigned) [Compound 1309 Isomer 1] | < 2000 nM | < 2000 nM | < 2 µM | –
CO[C@@H]1C[C@H](C(=O)N(c2ccc(C3CC3)cc2F)C(C(=O)NC2CCC(F)(F)CC2)c2cnccc2C(F)(F)F)N(C#N)C1 (single isomer, unassigned) [Compound 1309 Isomer 2] | 2000 to 10000 nM | – | – | IC50 (HCov OC43; [2]): 2 to 10 µM; EC50 (229E Mpro; read-out: 229E Mpro EC50): < 2000 nM
N#CN1CCOC[C@@H]1C(=O)N(c1ccc(C2CC2)cc1F)C(C(=O)NC1CCC(F)(F)CC1)c1cnccc1C(F)(F)F (single isomer, unassigned) [Compound 1313 Isomer 1] | < 2000 nM | < 2000 nM | < 2 µM | –
N#CN1CCOC[C@@H]1C(=O)N(c1ccc(C2CC2)cc1F)C(C(=O)NC1CCC(F)(F)CC1)c1cnccc1C(F)(F)F (single isomer, unassigned) [Compound 1313 Isomer 2] | 2000 to 10000 nM | – | – | IC50 (HCov OC43; [2]): 2 to 10 µM; EC50 (229E Mpro; read-out: 229E Mpro EC50): < 2000 nM
CC(C)(C#N)C(=O)N(c1ccc(S(F)(F)(F)(F)F)cc1)C(C(=O)NC1CCC(F)(F)CC1)c1cncc(F)c1 (single isomer, unassigned) [Compound 1316 Isomer 1, 2-cyano-N-[2-[(4,4-difluorocyclohexyl)amino]-1-(5-fluoro-3-pyridyl)-2-oxo-ethyl]-2-methyl-N-[4-(pentafluoro-λ6-sulfanyl)phenyl]propanamide] | > 30000 nM | 10000 to 30000 nM | > 30 µM | –
CC(C)(C#N)C(=O)N(c1ccc(S(F)(F)(F)(F)F)cc1)C(C(=O)NC1CCC(F)(F)CC1)c1cncc(F)c1 (single isomer, unassigned) [Compound 1316 Isomer 2, 2-Cyano-N-[2-[(4,4-difluorocyclohexyl)amino]-1-(5-fluoro-3-pyridyl)-2-oxo-ethyl]-2-methyl-N-[4-(pentafluoro-λ6-sulfanyl)phenyl]propanamide] | > 30000 nM | > 30000 nM | – | IC50 (HCov OC43; [2]): > 30 µM
N#CN1C[C@H]2C[C@H]2[C@@H]1C(=O)N(c1ccc(S(F)(F)(F)(F)F)cc1)C(C(=O)NC1CCC(F)(F)CC1)c1cnccc1C(F)(F)F (single isomer, unassigned) [Compound 1318 Isomer 1] | < 2000 nM | < 2000 nM | < 2 µM | –
N#CN1C[C@H]2C[C@H]2[C@@H]1C(=O)N(c1ccc(S(F)(F)(F)(F)F)cc1)C(C(=O)NC1CCC(F)(F)CC1)c1cnccc1C(F)(F)F (single isomer, unassigned) [Compound 1318 Isomer 2] | < 2000 nM | – | – | IC50 (HCov OC43; [2]): < 2 µM; EC50 (229E Mpro; read-out: 229E Mpro EC50): < 2000 nM
CC(C)(C)c1ccc(N(C(=O)[C@H]2CCCN2C#N)C(C(=O)NCc2ccccn2)c2cccnc2)cc1 (stereo partly drawn) [Compound 443] | 2000 to 10000 nM | < 2000 nM | 10 to 30 µM | –
CN(C)CCCNC(=O)C(c1cccnc1)N(C(=O)[C@H]1CCCN1C#N)c1ccc(C(C)(C)C)cc1 (stereo partly drawn) [Compound 455] | 2000 to 10000 nM | < 2000 nM | 10 to 30 µM | –
CC(C)(C)c1ccc(NC2(C#N)CCCc3ccncc32)cc1 (stereo not drawn) [Compound 690a] | > 30000 nM | > 30000 nM | > 30 µM | –
N#CC1(Nc2ccc(S(F)(F)(F)(F)F)cc2)CCCc2ccncc21 (stereo not drawn) [Compound 690b] | > 30000 nM | > 30000 nM | > 30 µM | –
C[C@]1(O)CN[C@@H](C(=O)N(c2ccc(S(F)(F)(F)(F)F)cc2)C(C(=O)NC2CCC(F)(F)CC2)c2cnnc3ccccc23)C1 (stereo partly drawn) [Compound 711a] | < 2000 nM | < 2000 nM | < 2 µM | –
CC(C)(C)c1ccc(N(C(=O)[C@H]2C[C@@H](O)CN2C#N)C(C(=O)NC2CCCCC2)c2cccnc2)c(Cl)c1 (stereo partly drawn) [Compound 775, (2R,4R)—N-(4-(tert-butyl)-2-chlorophenyl)-1-cyano-N-(2-(cyclohexylamino)-2-oxo-1-(pyridin-3-yl)ethyl)-4-hydroxypyrrolidine-2-carboxamide] | 10000 to 30000 nM | 2000 to 10000 nM | > 30 µM | –
N#CN1CC(=O)NC[C@@H]1C(=O)N(c1ccc(S(F)(F)(F)(F)F)cc1)C(C(=O)NC1CCOCC1)c1cccnc1 (stereo partly drawn) [Compound 811, 1-cyano-5-oxo-N-[2-oxo-1-(3-pyridyl)-2-(tetrahydropyran-4-ylamino)ethyl]-N-[4-(pentafluoro-λ^6-sulfanyl)phenyl]piperazine-2-carboxamide] | < 2000 nM | < 2000 nM | < 2 µM | –
CN1C[C@H](C(=O)N(c2ccc(S(F)(F)(F)(F)F)cc2)C(C(=O)NC2CCOCC2)c2cccnc2)N(C#N)CC1=O (stereo partly drawn) [Compound 813] | < 2000 nM | < 2000 nM | < 2 µM | –
CC(C)(C)c1ccc(N(C(=O)C2NCC[C@H]2F)C(C(=O)NC2CCCCC2)c2cccnc2)cc1 (stereo partly drawn) [Compound 853] | 2000 to 10000 nM | 2000 to 10000 nM | 2 to 10 µM | –
CC(C)(C)c1ccc(N(C(=O)[C@H]2CCCN2C#N)C(C(=O)N2CC(=O)C2)c2cccnc2)cc1 (stereo partly drawn) [Compound 946b, (2R)—N-(4-(tert-butyl)phenyl)-1-cyano-N-(2-oxo-2-(3-oxoazetidin-1-yl)-1-(pyridin-3-yl)ethyl)pyrrolidine-2-carboxamide] | 10000 to 30000 nM | 2000 to 10000 nM | 10 to 30 µM | –
CC(C)(C)c1ccc(N(C(=O)[C@H]2CCCN2C#N)C(C(=O)N2CC(O)C2)c2cccnc2)cc1 (stereo partly drawn) [Compound 950, (2R)—N-(4-(tert-butyl)phenyl)-1-cyano-N-(2-(3-hydroxyazetidin-1-yl)-2-oxo-1-(pyridin-3-yl)ethyl)pyrrolidine-2-carboxamide] | 2000 to 10000 nM | 2000 to 10000 nM | 10 to 30 µM | –
